In brackets after ≈: the same amount, converted by molar mass. Read-outs that look alike come from different tables or passages of the source.
How the values were obtained:
E. coli DH10B EC970 TetK = assay: MIC, E. coli DH10B recombinantly expressing tetracycline-resistance gene; details: arabinose-induced, ampicillin in medium
E. coli DH10B EC971 LacZ = assay: MIC, E. coli DH10B recombinantly expressing control gene; details: E. coli DH10B, arabinose-induced, ampicillin in medium
[1] = tested on: Legionella pneumophila, 70 isolates, serogroups 1-6; assay: microbe, parasite or virus in culture; assay type: cell-based
[2] = tested on: Gram-negative and Gram-positive organisms (clinical isolates); assay: Broth microdilution MIC against clinical isolates (CLSI M7-A8), Table 9; assay type: cell-based
S. pneumoniae SP106 = assay type: cell-based; details: SP106, plates containing compound at 5× the MIC, 5% sheep blood
[3] = tested on: E. coli DH10B EC1082 TetA; assay: MIC, E. coli DH10B recombinantly expressing tetracycline-resistance gene; details: arabinose-induced, ampicillin in medium
S. maltophila = assay: Broth microdilution MIC by tetracycline resistance phenotype (Table 10); assay type: cell-based; design: unit not given beside the values
[4] = tested on: E. coli DH10B EC1153 Tet(X); assay: MIC, E. coli DH10B recombinantly expressing tetracycline-resistance gene; details: arabinose-induced, ampicillin in medium

With `CN(C)[C@@H]1C(O)=C(C(N)=O)C(=O)[C@@]2(O)C(O)=C3C(=O)c4c(O)c5c(c(F)c4C[C@H]3C[C@@H]12)CN(C(C)(C)C)C5` [Compound 102] the “MIC EC970 TetK” value (E. coli DH10B EC970 TetK) was 0.5, the “MIC EC971 LacZ” value (E. coli DH10B EC971 LacZ) was 2 and the MIC50 [1] was 2 µg/mL (≈ 3.78 µM). For the same molecule, the MIC90 [1] was 8 µg/mL (≈ 15.1 µM), the “MICs against tetracycline resistant isolates relative to tetracycline susceptible isolates” value [2] was “not notably altered” and the “MICs relative to tetracycline” value [2] was “comparable MICs relative to tetracycline”. For the same molecule, the “potency against tetracycline resistant isolates” value [2] was “maintained potency”, the “potency by MIC50/MIC90, Gram-positive relative to Gram-negative pathogens” value [2] was “more potent by MIC50/MIC90 against Gram-positive pathogens relative to Gram-negative pathogens” and the “potency relative to tetracycline” value [2] was “more potent”. The MIC50 ([2]; Acinetobacter lwoffii, n=29, read-out: MIC50) was 0.12 µg/mL (≈ 0.227 µM), the MIC90 ([2]; Acinetobacter lwoffii, n=29, read-out: MIC90) was 0.5 µg/mL (≈ 0.944 µM) and the “MICs, fold lower than tetracycline” value ([2]; Acinetobacter lwoffli, S. maltophila, and streptococci) was 2-4 fold. The MIC50 ([2]; Enterobacter cloacae, n=29, read-out: MIC50) was 4 µg/mL (≈ 7.55 µM), the MIC90 ([2]; Enterobacter cloacae, n=29, read-out: MIC90) was 8 µg/mL (≈ 15.1 µM) and the MIC50 ([2]; Escherichia coli, n=40, read-out: MIC50) was 2 µg/mL (≈ 3.78 µM). For the same molecule, the MIC90 ([2]; Escherichia coli, n=40, read-out: MIC90) was 4 µg/mL (≈ 7.55 µM), the MIC50 ([2]; Kiebsielia oxytoca, n=30, read-out: MIC50) was 1 µg/mL (≈ 1.89 µM) and the MIC90 ([2]; Kiebsielia oxytoca, n=30, read-out: MIC90) was 4 µg/mL (≈ 7.55 µM). The MIC50 ([2]; Klebsiella aerogenes, Enterobacter aerogenes, n=30, read-out: MIC50) was 2 µg/mL (≈ 3.78 µM), the MIC90 ([2]; Klebsiella aerogenes, Enterobacter aerogenes, n=30, read-out: MIC90) was 2 µg/mL (≈ 3.78 µM) and the MIC50 ([2]; Klebsiella pneumoniae, Klebsiella pneumonia, n=27, read-out: MIC50) was 4 µg/mL (≈ 7.55 µM). For the same molecule, the MIC90 ([2]; Klebsiella pneumoniae, Klebsiella pneumonia, n=27, read-out: MIC90) was 16 µg/mL (≈ 30.2 µM), the MIC50 ([2]; Morganella morganii, n=30, read-out: MIC50) was 8 µg/mL (≈ 15.1 µM) and the MIC90 ([2]; Morganella morganii, n=30, read-out: MIC90) was 16 µg/mL (≈ 30.2 µM). For the same molecule, the MIC50 ([2]; Proteus vulgaris, n=29, read-out: MIC50) was 8 µg/mL (≈ 15.1 µM), the MIC90 ([2]; Proteus vulgaris, n=29, read-out: MIC90) was > 16 µg/mL and the MIC50 ([2]; Salmonella species, n=30) was 2 µg/mL (≈ 3.78 µM). The MIC90 ([2]; Salmonella species, n=30) was 2 µg/mL (≈ 3.78 µM), the MIC50 ([2]; Serratia marcescens, n=30, read-out: MIC50) was 4 µg/mL (≈ 7.55 µM) and the MIC90 ([2]; Serratia marcescens, n=30, read-out: MIC90) was 8 µg/mL (≈ 15.1 µM). The MIC50 ([2]; Shigella species, n=30, read-out: MIC50) was 0.5 µg/mL (≈ 0.944 µM), the MIC50 ([2]; Staphylococcus aureus, Staphylococcus aureus (MRSA PVL+), n=30, read-out: MIC50) was 0.25 µg/mL (≈ 0.472 µM) and the MIC90 ([2]; Staphylococcus aureus, Staphylococcus aureus (MRSA PVL+), n=30, read-out: MIC90) was 0.25 µg/mL (≈ 0.472 µM). For the same molecule, the MIC50 ([2]; Staphylococcus aureus, Staphylococcus aureus MRSA (includes MRSA PVL+ group), n=105, read-out: MIC50) was 0.5 µg/mL (≈ 0.944 µM), the MIC90 ([2]; Staphylococcus aureus, Staphylococcus aureus MRSA (includes MRSA PVL+ group), n=105, read-out: MIC90) was 2 µg/mL (≈ 3.78 µM) and the MIC50 ([2]; Stenotrophomonas maltophilia, n=29, read-out: MIC50) was 0.5 µg/mL (≈ 0.944 µM). It also gave an MIC90 ([2]; Stenotrophomonas maltophilia, n=29, read-out: MIC90) of 2 µg/mL (≈ 3.78 µM), an MIC50 ([2]; Streptococcus anginosus, n=20, read-out: MIC50) of 0.06 µg/mL (≈ 0.113 µM) and an MIC90 ([2]; Streptococcus anginosus, n=20, read-out: MIC90) of 0.25 µg/mL (≈ 0.472 µM). For the same molecule, the MIC50 ([2]; Streptococcus intermedius, n=30, read-out: MIC50) was 0.12 µg/mL (≈ 0.227 µM), the MIC90 ([2]; Streptococcus intermedius, n=30, read-out: MIC90) was 0.12 µg/mL (≈ 0.227 µM) and the MIC50 ([2]; Streptococcus mitis, n=29, read-out: MIC50) was 0.12 µg/mL (≈ 0.227 µM). It also gave an MIC90 ([2]; Streptococcus mitis, n=29, read-out: MIC90) of 0.25 µg/mL (≈ 0.472 µM), an MIC50 ([2]; Streptococcus sanguis, n=18, read-out: MIC50) of 0.06 µg/mL (≈ 0.113 µM) and an MIC90 ([2]; Streptococcus sanguis, n=18, read-out: MIC90) of 0.12 µg/mL (≈ 0.227 µM). The “MICs, fold higher than those of tigecycline” value ([2]; evaluated Gram-negative and Gram-positive pathogens, generally) was 2-4 fold, the spontaneous resistance frequency (S. pneumoniae SP106) was 1×10^−8 and the “MIC EC1082 TetA” value [3] was 2. For the same molecule, the MIC50 (S. maltophila; TET NS, n=19) was 1, the MIC90 (S. maltophila; TET NS, n=19) was 4 and the MIC50 (S. maltophila; TET S, n=10) was 0.5. For the same molecule, the MIC90 (S. maltophila; TET S, n=10) was 0.5 and the “MIC EC1153 Tet(X)” value [4] was 4.

From patent US20170107179A1 (Tetraphase Pharmaceuticals, Inc., priority 2010, published 2017)
